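Values below derive from 48-hour exposures of cells grown in 96-well plates, with endpoints linearly interpolated between the two concentrations bracketing the appropriate inhibition level. Here, GI50 denotes the concentration required for 50% inhibition of growth.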 Calls of active or inactive are those of the source. No stated cut-off is given here; in the data, active = GI50 up to about 1.1 µM and inactive = higher.

The results in this text go back to ChEMBL document CHEMBL1201862, “PubChem BioAssay data set” (2004).

Among the test systems are A549; EKVX; HL-60; HOP-62; HOP-92; HT-29; K562; MDA-MB-435; MDA-N; OVCAR-4; SF-268; SF-295; SK-MEL-5; T47D; UACC-257; UACC-62; UO-31; RPMI-8226; SK-OV-3.
Common to all, as to test: inhibition of tumour cell growth, NCI panel, 48 h

For the compound `c1ccc2c(c1)nnn2CN1CCOCC1`, the GI50 with A549 is > 100 µM (inactive); in the test on EKVX, > 100 µM (inactive); in the test with HL-60, 29.2 µM (inactive); in the test with HOP-62, > 100 µM (inactive); with HOP-92, 45.8 µM (inactive); with HT-29, > 100 µM (inactive). For the same compound, the GI50 was 45 µM (inactive) in the test with K562; > 100 µM (inactive) with MDA-MB-435; 71.6 µM (inactive) in the test on MDA-N; > 100 µM (inactive) with OVCAR-4; 63.8 µM (inactive) in the test with SF-268; > 100 µM (inactive) in the test with SF-295. Also, the GI50 is > 100 µM (inactive) with SK-MEL-5; > 100 µM (inactive) in the test with T47D; > 100 µM (inactive) in the test with UACC-257; 58.3 µM (inactive) in the test with UACC-62; > 100 µM (inactive) in the test with UO-31.
Turning to `CC1OC(OC2C(CO)OC(O[C@H]3CC[C@@]4(C)C(=CC[C@H]5[C@@H]6C[C@@H]7O[C@](O)(CC[C@H](CO)COC8OC(CO)C(O)C(O)C8O)[C@@H](C)[C@@H]7[C@@]6(C)CC[C@@H]54)C3)C(OC3OC(C)C(O)C(O)C3O)C2O)C(O)C(O)C1O` (stereo not given in full), the GI50 in the test on A549, with EKVX, in the test with HOP-62, with HOP-92, in the test on HT-29 and in the test on K562 was > 100 µM (inactive) each time. Moreover, the GI50 in the test on MDA-MB-435, with MDA-N, with OVCAR-4, in the test with RPMI-8226, in the test with SF-268 and in the test on SF-295 was > 100 µM (inactive) each time. Also, the GI50 in the test with SK-MEL-5, in the test on SK-OV-3, in the test with T47D, in the test on UACC-257, in the test on UACC-62 and in the test with UO-31 was > 100 µM (inactive) each time.
With `CN1C(NN)=NS(=O)(=O)c2ccccc21`, the GI50 in the test with A549, with EKVX, with HL-60, in the test on HOP-62, in the test with HOP-92 and in the test with HT-29 was > 100 µM (inactive) in each case. The GI50 with K562, with MDA-MB-435, with MDA-N, in the test with OVCAR-4, in the test on SF-268 and in the test with SF-295 was > 100 µM (inactive) each time. In addition, the GI50 with SK-MEL-5, with SK-OV-3, in the test with T47D, in the test on UACC-257, in the test on UACC-62 and with UO-31 was > 100 µM (inactive) in each case.
In the case of `CCN(CC)/C(Cl)=C(Cl)\C(=C1\Nc2ccc(OC)cc21)[N+](=O)[O-]`, the GI50 in the test on A549 is 58.9 µM (inactive); with EKVX, 30.1 µM (inactive); with HL-60, 32.3 µM (inactive); in the test on HOP-62, 78.7 µM (inactive); in the test with HOP-92 it was > 100 µM (inactive); with HT-29, 56.2 µM (inactive). The GI50 is 31.7 µM (inactive) in the test with K562; 37.2 µM (inactive) with MDA-MB-435; 50.4 µM (inactive) with MDA-N; 30.8 µM (inactive) in the test on OVCAR-4; 50.4 µM (inactive) in the test with SF-268; 45.8 µM (inactive) in the test on SF-295. Also, the GI50 with SK-MEL-5 is 28.6 µM (inactive); with SK-OV-3, 75.5 µM (inactive); in the test with T47D it was 24.6 µM (inactive); in the test on UACC-257 it was 75.5 µM (inactive); in the test on UACC-62, 88.5 µM (inactive); with UO-31, 95.1 µM (inactive).
For the compound `O=C(O)c1nc2ccccc2nc1Nc1ccc(Cl)c(Cl)c1`, the GI50 was 24.1 µM (inactive) with A549; 33.1 µM (inactive) with EKVX; 25.8 µM (inactive) with HL-60; 16.1 µM (inactive) in the test on HOP-62; 16.1 µM (inactive) in the test with HOP-92; 21.7 µM (inactive) in the test with K562. Further, the GI50 in the test on MDA-MB-435 was 28.4 µM (inactive); with MDA-N it was 24.9 µM (inactive); with RPMI-8226, 35.3 µM (inactive); with SF-268 it was 17.9 µM (inactive); with SF-295, 17.3 µM (inactive); in the test on SK-MEL-5, 15.7 µM (inactive). For the same compound, the GI50 was 28.3 µM (inactive) with SK-OV-3, 17.7 µM (inactive) with T47D, 31.8 µM (inactive) with UACC-257 and 15.6 µM (inactive) in the test on UO-31.
As to `CC(C)(C)OC(=O)N1Cc2cc(O)ccc2C[C@H]1C(=O)O`, the GI50 in the test with A549 is > 100 µM (inactive); in the test with EKVX it was > 100 µM (inactive); in the test on HL-60 it was 0.137 µM (active); with HOP-62, > 100 µM (inactive); in the test with HOP-92 it was > 100 µM (inactive); with HT-29 it was > 100 µM (inactive). Moreover, the GI50 with K562, in the test on MDA-MB-435, in the test with MDA-N, in the test on OVCAR-4, in the test with SF-268 and in the test on SF-295 was > 100 µM (inactive) in each case. In addition, the GI50 in the test on SK-MEL-5, in the test on SK-OV-3, in the test with T47D, with UACC-257 and in the test on UACC-62 was > 100 µM (inactive) each time.
`C#CCOC(=O)C(N)C(C)O` (stereo not given): the GI50 with A549, with EKVX, in the test on HL-60, in the test on HOP-62, in the test on HOP-92 and in the test with HT-29 was > 100 µM (inactive) each time. In addition, the GI50 in the test on K562, in the test on MDA-MB-435, with MDA-N, in the test with RPMI-8226, in the test on SF-268 and in the test with SF-295 was > 100 µM (inactive) throughout. Moreover, the GI50 in the test with SK-MEL-5, in the test on SK-OV-3, in the test on T47D, in the test with UACC-257, in the test on UACC-62 and with UO-31 was > 100 µM (inactive) throughout.
Regarding `COc1ccc(S(=O)(=O)n2c3c(c4ccccc42)[C@@H]2[C@@H](CCCN2C(=O)C[S+]([O-])c2ccc(C)cc2)[C@H](Cl)C3)cc1` (stereo not given in full), the GI50 in the test with A549 is > 100 µM (inactive); in the test with EKVX, > 100 µM (inactive); in the test on HL-60 it was 99.8 µM (inactive); in the test on HOP-62, > 100 µM (inactive); in the test with HOP-92, > 100 µM (inactive); with HT-29 it was > 100 µM (inactive). The GI50 in the test with K562, with MDA-MB-435, in the test on MDA-N, with SF-268, in the test on SF-295 and with SK-MEL-5 was > 100 µM (inactive) in each case. In addition, the GI50 in the test with SK-OV-3, with T47D, with UACC-257, in the test on UACC-62 and in the test on UO-31 was > 100 µM (inactive) throughout.
Turning to `O=C(CC(=O)N(C(=O)c1ccccc1)c1ccc(Cl)cc1)N/N=C\c1cc(/N=N/c2ccccc2Cl)ccc1O`, the GI50 was > 100 µM (inactive) in the test with A549; 90.2 µM (inactive) with EKVX; 12.7 µM (inactive) with HL-60; 39.5 µM (inactive) in the test on HOP-62; 23.5 µM (inactive) in the test on HOP-92; > 100 µM (inactive) in the test on HT-29. Also, the GI50 in the test on K562 was 17.3 µM (inactive); with MDA-MB-435 it was > 100 µM (inactive); in the test on MDA-N, > 100 µM (inactive); in the test with RPMI-8226 it was 68.2 µM (inactive); in the test with SF-268 it was 47.1 µM (inactive); in the test on SF-295 it was 29.9 µM (inactive). For the same compound, the GI50 in the test on SK-OV-3 was 52.1 µM (inactive); with T47D, 51.6 µM (inactive); in the test on UACC-62 it was 70.5 µM (inactive); in the test with UO-31, 45.6 µM (inactive).
With `COC(=O)CCC(=O)c1ccc2c(c1)CC1(C2)Cc2ccc3c(c2C1)CCCC3=O` (stereo not given), the GI50 in the test with A549 is > 57 µM (inactive); with EKVX, 56.8 µM (inactive); in the test with HL-60, 3.94 µM (inactive); in the test on HOP-62 it was > 53.5 µM (inactive); in the test with HOP-92, 15.5 µM (inactive); in the test on HT-29 it was 11.2 µM (inactive). Moreover, the GI50 with K562 is 2.88 µM (inactive); in the test on MDA-MB-435, 3.73 µM (inactive); in the test with MDA-N, 4.85 µM (inactive); in the test with OVCAR-4 it was 24.1 µM (inactive); in the test with SF-268 it was 33.8 µM (inactive); in the test with SF-295 it was 26 µM (inactive). In addition, the GI50 is 10.5 µM (inactive) in the test with SK-MEL-5; 50.6 µM (inactive) with SK-OV-3; 34.8 µM (inactive) in the test on T47D; 18.9 µM (inactive) in the test on UACC-257; > 26.1 µM (inactive) in the test on UACC-62; 18.2 µM (inactive) in the test with UO-31.
Take `O=C(O)c1ccccn1` [2-PICOLINIC ACID]: the GI50 with A549, in the test on EKVX, in the test on HOP-62, with HOP-92, in the test with HT-29 and in the test on K562 was > 100 µM (inactive) in each case. Besides, the GI50 in the test on MDA-MB-435, in the test on MDA-N, in the test with OVCAR-4, with RPMI-8226, in the test on SF-268 and in the test with SF-295 was > 100 µM (inactive) each time. Also, the GI50 in the test with SK-MEL-5, in the test on T47D, in the test on UACC-257, with UACC-62 and in the test on UO-31 was > 100 µM (inactive) each time.
